According to patent US10821115B2, “Compounds that inhibit Mcl-1 protein” (priority 2017, dated 2020):
Like-named read-outs stand apart in the source and are kept apart here.

Tests used:
[1] = tested on: human multiple myeloma cell line, OPM-2; assay: Cell viability assay (OPM-2 10 FBS), CellTiter-Glo; assay type: cell-based
Procedure, shortened: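 Cells were seeded at 3000 cells/well in RPMI 1640 with 10% FBS and exposed to serially diluted compounds for 16 h at 37 °C, 5% CO2.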

[2] = molecular target: recombinant human Mcl-1 (residues 171-327) / Bim interaction (Homo sapiens (Human), UniProt Q07820); assay: biochemical; assay type: binding; conditions: read-out: Mcl-1 HTRF IC50
recombinant human Mcl-1 (residues 171-327) / Bim interaction, sequence (Q07820 171-327): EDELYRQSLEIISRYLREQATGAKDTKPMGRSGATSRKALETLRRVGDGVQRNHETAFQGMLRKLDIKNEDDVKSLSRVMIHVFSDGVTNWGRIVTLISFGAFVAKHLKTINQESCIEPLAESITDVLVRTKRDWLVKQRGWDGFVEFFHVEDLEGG

[3] = read-out: OPM-2 10% FBS IC50 IP, OPM-2 cells, 10% FBS, 16 h, CellTiter-Glo
[4] = TR-FRET, Mcl-1(171-327) / biotin-Bim (51-76)
[5] = Homo sapiens, OPM-2, 16 h, read-out: OPM-2 10% FBS IC50 IP, OPM-2 cells, 10% FBS, 16 h, CellTiter-Glo
[6] = read-out: OPM-2 10% FBS IC50 IP, OPM-2 cells, 10% FBS, 16 h incubation
[7] = 0.1 nM Mcl-1(171-327), 0.05 nM biotin-Bim (51-76)
[8] = Homo sapiens, OPM-2, 16 h, read-out: OPM-2 10% FBS IC50 IP, OPM-2 cells, 10% FBS, 16 h incubation

Compound | IC50 [1, 3] | IC50 [2, 4] | IC50 [1, 5] | IC50 [2, 7] | other results
C[C@@H]1[C@@H](C)C/C=C/[C@@](O)(CC(=O)N(C)CCN(C)C)[C@@H]2CC[C@H]2CN2C[C@@]3(CCCc4cc(Cl)ccc43)COc3ccc(cc32)C(=O)NS1(=O)=O [Example 100281, 2-((1S,3′R,6′R,7′S,8′E,11′S,12′R)-6-chloro-7′-hydroxy-11′,12′-dimethyl-13′,13′-dioxido-15′-oxo-3,4-dihydro-2H-spiro[naphthalene-1,22′-[20]oxa[13]thia[1,14]diazatetracyclo [14.7.2.0~3,6~.0~19,24~]pentacosa[8,16,18,24]tetraen]-7′-yl)-N-(2-(dimethylamino)ethyl)-N-methylacetamide] | 352 nM | 0.117 nM | – | – | –
C[C@@H]1[C@@H](C)C/C=C/[C@@](O)(c2cccnc2)[C@@H]2CC[C@H]2CN2C[C@@]3(CCCc4cc(Cl)ccc43)COc3ccc(cc32)C(=O)NS1(=O)=O [Example 100384, (1S,3′R,6′R,7′S,8′E,11′S,12′R)-6-chloro-7′-hydroxy-11′,12′-dimethyl-7′-(3-pyridinyl)-3,4-dihydro-2H,15′H-spiro[naphthalene-1,22′-[20]oxa[13]thia[1,14]diazatetracyclo [14.7.2.0~3,6~.0~19,24~]pentacosa[8,16,18,24]tetraen]-15′-one 13′,13′-dioxide] | – | 0.821 nM | 729 nM | – | –
C[C@@H]1[C@@H](C)CCC[C@@](O)(Cc2ccccn2)[C@@H]2CC[C@H]2CN2C[C@@]3(CCCc4cc(Cl)ccc43)COc3ccc(cc32)C(=O)NS1(=O)=O [Example 100104, (1S,3′R,6′R,7′R,11′S,12′R)-6-chloro-7′-hydroxy-11′,12′-dimethyl-7′-(2-pyridinylmethyl)-3,4-dihydro-2H,15′H-spiro[naphthalene-1,22′-[20]oxa[13]thia[1,14]diazatetracyclo [14.7.2.0~3,6~.0~19,24~]pentacosa[16,18,24]trien]-15′-one 13′,13′-dioxide] | 250 nM | 0.599 nM | – | – | –
C[C@@H]1[C@@H](C)CCC[C@](O)(COCCN(C)C)[C@@H]2CC[C@H]2CN2C[C@@]3(CCCc4cc(Cl)ccc43)COc3ccc(cc32)C(=O)NS1(=O)=O [Example 100195, (1S,3′R,6′R,7′R,11′S,12′R)-6-chloro-7′-((2-(dimethylamino)ethoxy)methyl)-7′-hydroxy-11′,12′-dimethyl-3,4-dihydro-2H,15′H-spiro[naphthalene-1,22′-[20]oxa[13]thia[1,14]diazatetracyclo [14.7.2.0~3,6~.0~19,24~]pentacosa[16,18,24]trien]-15′-one 13′,13′-dioxide] | – | 1.07 nM | 625 nM | – | –
CO[C@@]1(CN2CCN3CCS(=O)(=O)C[C@@H]3C2)/C=C/C[C@H](C)[C@@H](C)S(=O)(=O)NC(=O)c2ccc3c(c2)N(C[C@@H]2CC[C@H]21)C[C@@]1(CCCc2cc(Cl)ccc21)CO3 (single isomer, unassigned) [Example 231] | – | – | – | 0.061 nM | IC50 [1, 6]: 98 nM
C[C@@H]1[C@@H](C)CCC[C@@]2(CCO2)[C@@H]2CC[C@H]2CN2C[C@@]3(CCCc4cc(Cl)ccc43)COc3ccc(cc32)C(=O)NS1(=O)=O [Example 100228, (1S,3′R,6′R,7′R,11′S,12′R)-6-chloro-11′,12′-dimethyl-3,4-dihydro-2H,15′H-dispiro[naphthalene-1,22′-[20]oxa[13]thia[1,14]diazatetracyclo [14.7.2.0~3,6~.0~19,24~]pentacosa[16,18,24]triene-7′,2″-oxetan]-15′-one 13′,13′-dioxide] | – | 0.558 nM | 3300 nM | – | –
C=CCO[C@]1(CN2CCN3CCOC[C@@H]3C2)/C=C/C[C@H](C)[C@@H](C)S(=O)(=O)NC(=O)c2ccc3c(c2)N(C[C@@H]2CC[C@H]21)C[C@@]1(CCCc2cc(Cl)ccc21)CO3 [Example 46, (1S,3′R,6′R,7′R,8′E,11′S,12′R)-6-chloro-7′-((9aS)-hexahydropyrazino[2,1-c][1,4]oxazin-8(1H)-ylmethyl)-11′,12′-dimethyl-7′-(2-propen-1-yloxy)-3,4-dihydro-2H,15′H-spiro[naphthalene-1,22′-[20]oxa[13]thia[1,14]diazatetracyclo [14.7.2.0~3,6~.0~19,24~]pentacosa[8,16,18,24]tetraen]-15′-one 13′,13′-dioxide] | – | – | – | 0.107 nM | IC50 [1, 8]: 167 nM
CO[C@@]1(C[C@@H](O)C2CC2)/C=C/C[C@H](C)[C@@H](C)S(=O)(=O)NC(=O)c2ccc3c(c2)N(C[C@@H]2CC[C@H]21)C[C@@]1(CCCc2cc(Cl)ccc21)CO3 (racemic) [Example 100437, (1S,3′R,6′R,7′S,8′E,11′S,12′R)-6-chloro-7′-((2R)-2-cyclopropyl-2-hydroxyethyl)-7′-methoxy-11′,12′-dimethyl-3,4-dihydro-2H,15′H-spiro[naphthalene-1,22′-[20]oxa[13]thia[1,14]diazatetracyclo [14.7.2.0~3,6~.0~19,24~]pentacosa[8,16,18,24]tetraen]-15′-one 13′,13′-dioxide] | – | 0.073 nM | 531 nM | – | –
C[C@@H]1[C@@H](C)C/C=C/[C@](O)(Cc2nccs2)[C@@H]2CC[C@H]2CN2C[C@@]3(CCCc4cc(Cl)ccc43)COc3ccc(cc32)C(=O)NS1(=O)=O [Example 100245, (1S,3′R,6′R,7′R,8′E,11′S,12′R)-6-chloro-7′-hydroxy-11′,12′-dimethyl-7′-(1,3-thiazol-2-ylmethyl)-3,4-dihydro-2H,15′H-spiro[naphthalene-1,22′-[20]oxa[13]thia[1,14]diazatetracyclo [14.7.2.0~3,6~.0~19,24~]pentacosa[8,16,18,24]tetraen]-15′-one 13′,13′-dioxide] | 1980 nM | – | – | – | IC50 [2]: 1.71 nM
CO[C@@]1(C[C@@H](O)C2CC2)/C=C/C[C@H](C)[C@@H](C)S(=O)(=O)NC(=O)c2ccc3c(c2)N(C[C@@H]2CC[C@H]21)C[C@@]1(CCCc2cc(Cl)ccc21)CO3 (single isomer, unassigned) [Example 100460] | – | 0.095 nM | 433 nM | – | –
C[C@@H]1[C@@H](C)C/C=C/[C@](O)(c2cccnc2F)[C@@H]2CC[C@H]2CN2C[C@@]3(CCCc4cc(Cl)ccc43)COc3ccc(cc32)C(=O)NS1(=O)=O (single isomer, unassigned) [Example 100314] | 2290 nM | 2.93 nM | – | – | –
C[C@@H]1[C@@H](C)CCC[C@@](O)(CN)[C@@H]2CC[C@H]2CN2C[C@@]3(CCCc4cc(Cl)ccc43)COc3ccc(cc32)C(=O)NS1(=O)=O (single isomer, unassigned) [Example 507] | – | – | – | 13.7 nM | IC50 [1, 6]: > 33300 nM
CO[C@@]1(CN2CCN(c3nccs3)CC2)/C=C/C[C@H](C)[C@@H](C)S(=O)(=O)NC(=O)c2ccc3c(c2)N(C[C@@H]2CC[C@H]21)C[C@@]1(CCCc2cc(Cl)ccc21)CO3 [Example 255, (1S,3′R,6′R,7′S,8′E,11′S,12′R)-6-chloro-7′-methoxy-11′,12′-dimethyl-7′-((4-(1,3-thiazol-2-yl)-1-piperazinyl)methyl)-3,4-dihydro-2H,15′H-spiro[naphthalene-1,22′-[20]oxa[13]thia[1,14]diazatetracyclo [14.7.2.0~3,6~.0~19,24~]pentacosa[8,16,18,24]tetraen]-15′-one 13′,13′-dioxide] | – | – | – | 1.74 nM | IC50 [1, 8]: 1480 nM
